Source: US10300071B2, “Compositions and methods for inhibition of mycobacteria” (priority 2014, dated 2019)
Converted amounts (≈) assume the structure as drawn. Where two headings read alike, the source gives them in different places.

Tests used:
Mtb strain mc^2-7000 = assay: microbe, parasite or virus in culture; type: cell-based, Mycobacterium tuberculosis; conditions: for MIC: 6 days incubation at 37° C., resazurin, read on the 7th day
Mtb AccD6 = Mtb AccD6 (Mycobacterium tuberculosis, UniProt P9WQH5); assay: biochemical; type: biochemical; conditions: 300 μM malonyl-CoA, inhibitor 10 μM to 2000 μM
Mtb AccD6, sequence (P9WQH5 whole entry, looked up): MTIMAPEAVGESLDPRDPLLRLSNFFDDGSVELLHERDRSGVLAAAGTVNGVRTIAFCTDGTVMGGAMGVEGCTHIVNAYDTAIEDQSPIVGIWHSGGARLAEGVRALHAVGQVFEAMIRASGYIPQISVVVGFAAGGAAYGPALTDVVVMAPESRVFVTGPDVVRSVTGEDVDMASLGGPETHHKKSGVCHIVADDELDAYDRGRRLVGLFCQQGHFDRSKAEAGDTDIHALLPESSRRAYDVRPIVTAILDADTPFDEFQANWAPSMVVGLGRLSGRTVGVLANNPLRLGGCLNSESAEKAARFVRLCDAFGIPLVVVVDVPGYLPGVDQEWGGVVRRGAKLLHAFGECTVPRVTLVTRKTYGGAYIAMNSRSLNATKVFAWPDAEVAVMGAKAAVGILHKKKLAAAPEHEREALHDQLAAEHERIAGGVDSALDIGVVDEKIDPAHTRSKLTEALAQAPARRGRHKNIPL

[1] = Mycobacterium tuberculosis, 144 h, read-out: MIC

Structure (SMILES): CC(Oc1ccc(Oc2ncc(C(F)(F)F)cc2Cl)cc1)C(=O)O (racemic) [haloxyfop, (RS)-2-{4-[3-chloro-5-(trifluoromethyl)-2-pyridyloxy]phenoxy}propionic acid, reference compound]
- whole Mycobacterium tuberculosis cell inhibition (Mtb strain mc^2-7000; preliminary studies of commercially available herbicides): none exhibited whole Mycobacterium tuberculosis cell inhibition

Structure (SMILES): CCOC(=O)[C@@H](C)Oc1ccc(Oc2nc3ccc(Cl)cc3s2)cc1 [NZ-246, ethyl (2R)-2-{4-[(6-chloro-1,3-benzothiazol-2-yl)oxy]phenoxy}propanoate]
- MIC (Mtb strain mc^2-7000; [1]): 3 µM (≈ 1.13 µg/mL)

Structure (SMILES): CCOC(=O)[C@@H](C)Oc1ccc(Oc2nc3ccc(Br)cc3s2)cc1 [NZ-250, ethyl (2R)-2-{4-[(6-bromo-1,3-benzothiazol-2-yl)oxy]phenoxy}propanoate]
- MIC (Mtb strain mc^2-7000; [1]): 3.12 µM (≈ 1.32 µg/mL)

Structure (SMILES): CCOC(=O)[C@@H](C)Oc1ccc(Oc2nc3ccccc3s2)cc1 [NZ-252, ethyl (2R)-2-[4-(1,3-benzothiazol-2-yloxy)phenoxy]propanoate]
- IC50 (Mtb AccD6): Not Soluble
- MIC (Mtb strain mc^2-7000): Not Soluble

Structure (SMILES): COC(=O)COc1ccc(Oc2cnc3cc(Cl)ccc3n2)cc1 [NZ-256, methyl 2-{4-[(6-chloroquinoxalin-2-yl)oxy]phenoxy}acetate]
- MIC (Mtb strain mc^2-7000; [1]): 1.5 µM

Structure (SMILES): NC(=O)COc1ccc(Oc2cnc3cc(Cl)ccc3n2)cc1 [NZ-258, 2-{4-[(6-chloroquinoxalin-2-yl)oxy]phenoxy}acetamide]
- IC50 (Mtb AccD6; read-out: IC50): 2.1 to 3.1 µM
- MIC (Mtb strain mc^2-7000; [1]): 50 µM (≈ 16.5 µg/mL)

Structure (SMILES): CS(=O)(=O)NC(=O)COc1ccc(Oc2cnc3cc(Cl)ccc3n2)cc1 [NZ-259, 2-{4-[(6-chloroquinoxalin-2-yl)oxy]phenoxy}-N-methanesulfonylacetamide]
- IC50 (Mtb AccD6; read-out: IC50): 1.6 to 2.6 µM
- MIC (Mtb strain mc^2-7000; [1]): > 50 µM

Structure (SMILES): CCOC(=O)[C@@H](C)Oc1ccc(Oc2nc3ccc([N+](=O)[O-])cc3s2)cc1 [NZ-260, ethyl (2R)-2-{4-[(6-nitro-1,3-benzothiazol-2-yl)oxy]phenoxy}propanoate]
- MIC (Mtb strain mc^2-7000; [1]): 0.19 to 2.3 µM (≈ 0.0738 to 0.893 µg/mL)

Structure (SMILES): CN(C)C(=O)COc1ccc(Oc2cnc3cc(Cl)ccc3n2)cc1 [NZ-262, 2-{4-[(6-chloroquinoxalin-2-yl)oxy]phenoxy}-N,N-dimethylacetamide]
- IC50 (Mtb AccD6; read-out: IC50): 1.8 µM
- MIC (Mtb strain mc^2-7000; [1]): > 25 µM

Structure (SMILES): N#CCOc1ccc(Oc2cnc3cc(Cl)ccc3n2)cc1 [NZ-263, 2-{4-[(6-chloroquinoxalin-2-yl)oxy]phenoxy}acetonitrile]
- IC50 (Mtb AccD6; read-out: IC50): 7.8 µM
- MIC (Mtb strain mc^2-7000; [1]): > 50 µM

Structure (SMILES): CC(O)COc1ccc(Oc2cnc3cc(Cl)ccc3n2)cc1 (stereo not shown) [NZ-264, 1-{4-[(6-chloroquinoxalin-2-yl)oxy]phenoxy}propan-2-ol]
- IC50 (Mtb AccD6; read-out: IC50): 3.4 µM
- MIC (Mtb strain mc^2-7000; [1]): > 12.5 µM

Structure (SMILES): O=C(COc1ccc(Oc2cnc3cc(Cl)ccc3n2)cc1)N1CCCCC1 [NZ-265, 2-{4-[(6-chloroquinoxalin-2-yl)oxy]phenoxy}-1-(piperidin-1-yl)ethan-1-one]
- IC50 (Mtb AccD6; read-out: IC50): 0.57 µM
- MIC (Mtb strain mc^2-7000; [1]): 3 µM (≈ 1.19 µg/mL)

Structure (SMILES): O=C(COc1ccc(Oc2cnc3cc(Cl)ccc3n2)cc1)N1CCOCC1 [NZ-266, 2-{4-[(6-chloroquinoxalin-2-yl)oxy]phenoxy}-1-(morpholin-4-yl)ethan-1-one]
- IC50 (Mtb AccD6; read-out: IC50): 0.99 µM
- MIC (Mtb strain mc^2-7000; [1]): > 12.5 µM

Structure (SMILES): CNC(=O)COc1ccc(Oc2cnc3cc(Cl)ccc3n2)cc1 [NZ-267, 2-{4-[(6-chloroquinoxalin-2-yl)oxy]phenoxy}-N-methylacetamide]
- IC50 (Mtb AccD6; read-out: IC50): 2.4 µM
- MIC (Mtb strain mc^2-7000; [1]): > 25 µM

Structure (SMILES): Clc1ccc2nc(Oc3ccc(OCc4nnn[nH]4)cc3)cnc2c1 [NZ-268, 6-chloro-2-[4-(1H-1,2,3,4-tetrazol-5-ylmethoxy)phenoxy]quinoxaline]
- IC50 (Mtb AccD6; read-out: IC50): 1.7 µM
- MIC (Mtb strain mc^2-7000; [1]): > 12.5 µM

Structure (SMILES): Cn1nnnc1COc1ccc(Oc2cnc3cc(Cl)ccc3n2)cc1 [NZ-270, 6-chloro-2-{4-[(1-methyl-1H-1,2,3,4-tetrazol-5-yl)methoxy]phenoxy}quinoxaline]
- IC50 (Mtb AccD6; read-out: IC50): 9.7 µM
- MIC (Mtb strain mc^2-7000; [1]): > 50 µM

Structure (SMILES): Clc1ccc2nc(Oc3ccc(OCc4ncco4)cc3)cnc2c1 [NZ-271, 6-chloro-2-[4-(1,3-oxazol-2-ylmethoxy)phenoxy]quinoxaline]
- IC50 (Mtb AccD6; read-out: IC50): 11.6 µM
- MIC (Mtb strain mc^2-7000; [1]): > 50 µM

Structure (SMILES): CCOC(COc1ccc(Oc2cnc3cc(Cl)ccc3n2)cc1)OCC [NZ-272, 6-chloro-2-[4-(2,2-diethoxyethoxy)phenoxy]quinoxaline]
- IC50 (Mtb AccD6; read-out: IC50): 5.8 µM
- MIC (Mtb strain mc^2-7000; [1]): > 12.5 µM
